Data from the supplement of paper PMC11451515.

Tested on: P12-Ichikawa
Assay: cell viability relative to DMSO control; higher = less cytotoxic
Settings: 48 h
Outline: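 Viability values are per-plate percentages of DMSO wells, with background from cell-free wells. Library compounds in DMSO were pin-dosed, in an 11-point threefold series from 47 μM to 0.79 nM, onto NOMO1 or SEM (500 cells/well) or P12-Ichikawa (1000 cells/well) leukemia cells in 1536-well plates (5 μl). Those cells had been adapted for at least four passages in each medium, and CellTiter-Glo One luminescence was read after 48 h at 37°C.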

[1] = HPLM + 10% dialyzed FBS, 0.000781 µM
[2] = HPLM + 10% dialyzed FBS, 0.00234 µM
[3] = HPLM + 10% dialyzed FBS, 0.00702 µM
[4] = HPLM + 10% dialyzed FBS, 0.0211 µM
[5] = HPLM + 10% dialyzed FBS, 0.0632 µM
[6] = HPLM + 10% dialyzed FBS, 0.19 µM
[7] = HPLM + 10% dialyzed FBS, 0.569 µM
[8] = HPLM + 10% dialyzed FBS, 1.71 µM
[9] = HPLM + 10% dialyzed FBS, 5.12 µM
[10] = HPLM + 10% dialyzed FBS, 15.4 µM
[11] = HPLM + 10% dialyzed FBS, 46.1 µM
[12] = RPMI 5 mM glucose + 10% FBS, 0.000781 µM
[13] = RPMI 5 mM glucose + 10% FBS, 0.00234 µM
[14] = RPMI 5 mM glucose + 10% FBS, 0.00702 µM
[15] = RPMI 5 mM glucose + 10% FBS, 0.0211 µM
[16] = RPMI 5 mM glucose + 10% FBS, 0.0632 µM
[17] = RPMI 5 mM glucose + 10% FBS, 0.19 µM
[18] = RPMI 5 mM glucose + 10% FBS, 0.569 µM
[19] = RPMI 5 mM glucose + 10% FBS, 1.71 µM
[20] = RPMI 5 mM glucose + 10% FBS, 5.12 µM
[21] = RPMI 5 mM glucose + 10% FBS, 15.4 µM
[22] = RPMI 5 mM glucose + 10% FBS, 46.1 µM
[23] = RPMI 5 mM glucose + 10% dialyzed FBS, 0.000781 µM
[24] = RPMI 5 mM glucose + 10% dialyzed FBS, 0.00234 µM
[25] = RPMI 5 mM glucose + 10% dialyzed FBS, 0.00702 µM
[26] = RPMI 5 mM glucose + 10% dialyzed FBS, 0.0211 µM
[27] = RPMI 5 mM glucose + 10% dialyzed FBS, 0.0632 µM
[28] = RPMI 5 mM glucose + 10% dialyzed FBS, 0.19 µM
[29] = RPMI 5 mM glucose + 10% dialyzed FBS, 0.569 µM
[30] = RPMI 5 mM glucose + 10% dialyzed FBS, 1.71 µM
[31] = RPMI 5 mM glucose + 10% dialyzed FBS, 5.12 µM
[32] = RPMI 5 mM glucose + 10% dialyzed FBS, 15.4 µM
[33] = RPMI 5 mM glucose + 10% dialyzed FBS, 46.1 µM

Row | SMILES | cell viability [1] [%] | cell viability [2] [%] | cell viability [3] [%] | cell viability [4] [%] | cell viability [5] [%] | cell viability [6] [%] | cell viability [7] [%] | cell viability [8] [%] | cell viability [9] [%] | cell viability [10] [%] | cell viability [11] [%] | cell viability [12] [%] | cell viability [13] [%] | cell viability [14] [%] | cell viability [15] [%] | cell viability [16] [%] | cell viability [17] [%] | cell viability [18] [%] | cell viability [19] [%] | cell viability [20] [%] | cell viability [21] [%] | cell viability [22] [%] | cell viability [23] [%] | cell viability [24] [%] | cell viability [25] [%] | cell viability [26] [%] | cell viability [27] [%] | cell viability [28] [%] | cell viability [29] [%] | cell viability [30] [%] | cell viability [31] [%] | cell viability [32] [%] | cell viability [33] [%]
1 | C[C@]12CCC3c4ccc(O)cc4CCC3C1CCC2=O (stereo partly drawn) | 92 | 95.3 | 101 | 98.9 | 102 | 97.9 | 84.6 | 94 | 90.2 | 73.7 | 83.9 | 88.2 | 95.4 | 96.8 | 103 | 102 | 100 | 98.8 | 95.5 | 87.4 | 72.6 | 83.9 | 86.9 | 93.6 | 86.2 | 87 | 87.7 | 88.4 | 97.9 | 80.7 | 72.8 | 54.4 | 66.4
2 | CCOC(=O)N1CCN(/[N+]([O-])=N/Oc2cc(O/N=[N+](\[O-])N3CCN(C(=O)OCC)CC3)c([N+](=O)[O-])cc2[N+](=O)[O-])CC1 | 122 | 123 | 125 | 123 | 131 | 140 | 131 | 140 | 136 | 134 | 135 |  |  |  |  |  |  |  |  |  |  |  |  |  |  |  |  |  |  |  |  |  | 
3 | COc1cc(C(=O)NC2CCN(C)CC2)ccc1Nc1ncc2c(n1)N(C1CCCC1)CCC(=O)N2C(C)C | 104 | 102 | 103 | 110 | 109 | 110 | 85 | 109 | 79.2 | 26.3 | 4.5 | 107 | 103 | 95.1 | 112 | 108 | 116 | 89.6 | 114 | 73.4 | 42.7 | 5.67 | 98.1 | 104 | 111 | 110 | 111 | 106 | 92.3 | 107 | 71.2 | 54.1 | 6
4 | c1cc(-c2cnn3cc(-c4ccc(OCCN5CCCCC5)cc4)cnc23)ccn1 | 90.3 | 91.1 | 93.8 | 91.8 | 97 | 93.7 | 91.7 | 91.4 | 89.6 | 85.6 | 2.9 | 83.8 | 81.9 | 96.7 | 86.9 | 87.5 | 79 | 76 | 84.2 | 85.9 | 83.2 | 50.5 | 89.2 | 86.8 | 84.1 | 88.5 | 86.8 | 85.4 | 78.8 | 83.7 | 78.2 | 88 | 85.7
5 | Cc1ccc2nc(NCCN)c3ncc(C)n3c2c1 | 104 | 105 | 106 | 101 | 106 | 104 | 103 | 105 | 109 | 94.8 | 42.5 | 97.8 | 111 | 105 | 107 | 107 | 108 | 102 | 104 | 102 | 97.4 | 23.2 | 102 | 110 | 104 | 105 | 104 | 91 | 101 | 102 | 103 | 101 | 33.7
6 | CN1C(=O)/C(=C(NC2=CC=C(I)C=C2F)\C3=C1\N=C/N(C[C@@H](O)CO)C3=O)F | 86.5 | 82.2 | 87.2 | 89.6 | 81.1 | 82.8 | 75.4 | 80.3 | 74.8 | 71.3 | 62.9 | 78.2 | 74.9 | 83.6 | 73.8 | 71.6 | 71.3 | 72.1 | 70.4 | 68 | 68.9 | 40.5 | 81.1 | 82.2 | 85.6 | 86.7 | 77.7 | 81.9 | 76.2 | 80.1 | 78 | 65.2 | 39.2
7 | CN(C)CCCC1(c2ccc(F)cc2)OCc2cc(C#N)ccc21 (stereo not drawn) | 98.8 | 96.8 | 95.5 | 90.1 | 95.1 | 94.8 | 91.8 | 99.9 | 69.7 | 87.7 | 74.7 | 91 | 83.8 | 88.2 | 91.1 | 96.4 | 89.7 | 87.1 | 85.8 | 83.2 | 82.5 | 74.3 | 90.6 | 97.3 | 91.1 | 92.7 | 94.4 | 92.3 | 89.3 | 91.9 | 78.5 | 80.2 | 78.4
8 | Oc1ccc(OCc2ccccc2)cc1 | 114 | 114 | 119 | 105 | 119 | 102 | 115 | 103 | 90.1 | 69.9 | 65.3 | 114 | 116 | 111 | 127 | 106 | 114 | 109 | 93.7 | 83.4 | 68.4 | 64.8 | 105 | 115 | 114 | 117 | 106 | 115 | 107 | 86.5 | 75.2 | 52.4 | 44.6
9 | CCC(C)CCCCC(=O)N[C@@H](CCN)C(=O)NC(C(=O)N[C@H](CCN)C(=O)N[C@@H]1CCNC(=O)C([C@@H](C)O)NC(=O)[C@@H](CCN)NC(=O)[C@@H](CCN)NC(=O)[C@@H](CC(C)C)NC(=O)[C@H](Cc2ccccc2)NC(=O)[C@H](CCN)NC1=O)[C@@H](C)O (stereo partly drawn) | 114 | 118 | 117 | 117 | 122 | 128 | 129 | 124 | 129 | 128 | 126 | 114 | 113 | 115 | 120 | 135 | 135 | 134 | 131 | 132 | 132 | 123 | 111 | 110 | 112 | 115 | 117 | 117 | 120 | 134 | 135 | 123 | 124
10 | Nc1ccc(C(=O)c2cc3c(ccc4ccccc43)[nH]2)cc1 | 121 | 124 | 122 | 118 | 120 | 109 | 96.4 | 81.4 | 31.1 | 10.6 | 5.96 | 118 | 112 | 115 | 118 | 112 | 108 | 102 | 77.5 | 40.7 | 12.9 | 8.36 | 118 | 115 | 117 | 102 | 116 | 111 | 91 | 74.9 | 56.6 | 13.7 | 5.99
11 | CC(C)(N)C(=O)N[C@H](COCc1ccccc1)C(=O)N1CCC2(CC1)CN([S+](C)(=O)[O-])c1ccccc12 |  |  |  |  |  |  |  |  |  |  |  |  |  |  |  |  |  |  |  |  |  |  | 124 | 122 | 141 | 126 | 125 | 124 | 123 | 114 | 109 | 91.8 | 20.3
12 | CNC(=O)c1ccc2c(c1)NC(=O)/C2=C(\Nc1cccc(CN(C)C)c1)c1ccccc1 | 92.9 | 97.2 | 98.5 | 99.8 | 100 | 101 | 98.9 | 89.1 | 35.8 | 87.6 | 0.763 | 87.3 | 98.2 | 97.3 | 105 | 102 | 101 | 103 | 92.5 | 36.5 | 83.5 | 1.21 | 86.4 | 95.6 | 108 | 101 | 102 | 101 | 103 | 97.5 | 35.6 | 81.8 | 1.03
13 | CC(C)(N)c1ccc(-c2nc3ccccc3nc2-c2ccccc2)cc1 | 110 | 114 | 108 | 65.8 | 23.2 | 10.3 | 7.18 | 5.6 | 5.46 | 4.51 | 4.37 | 96.3 | 120 | 109 | 111 | 84.4 | 18.8 | 10.2 | 6.88 | 6.89 | 4.41 | 3.11 | 108 | 117 | 111 | 114 | 68.8 | 22.3 | 13.9 | 8.23 | 7.24 | 7.26 | 4.8
14 | NC(=O)c1cccc(-c2cc(Nc3ccc(OC(F)(F)F)cc3)ncn2)c1 | 101 | 96.4 | 98.5 | 101 | 109 | 104 | 105 | 102 | 97 | 99.3 | 89.5 | 102 | 97.7 | 98 | 94.2 | 105 | 107 | 105 | 98.7 | 91.5 | 96.1 | 80.3 | 99.5 | 85.7 | 97.1 | 91.9 | 111 | 104 | 96.1 | 98.8 | 100 | 95.8 | 81.5
15 | COc1cc(NCc2ccc3nc(N)nc(N)c3c2C)cc(OC)c1OC | 88.8 | 88.8 | 95.8 | 101 | 99 | 94.4 | 79.4 | 62.2 | 32.9 | 24.7 | 14.7 | 82.4 | 91.7 | 86.1 | 91.5 | 96.4 | 88.4 | 96.1 | 87.8 | 68.6 | 58.9 | 1.49 | 73.2 | 82.4 | 82.7 | 87.5 | 96.2 | 87.6 | 88.3 | 85.9 | 65.7 | 26.1 | 1.75
16 | CCCCCCNC(=O)N1\C=C(F)/C(=O)NC1=O | 122 | 124 | 123 | 127 | 121 | 129 | 126 | 124 | 113 | 107 | 89.3 |  |  |  |  |  |  |  |  |  |  |  | 108 | 118 | 122 | 122 | 127 | 117 | 129 | 121 | 116 | 91.8 | 81.8
